These results are taken from article PMC4229492 (International journal of toxicology, 2014).

Data set [1] has as its system first stage trypanosome infection. The conditions noted are these: i.p. 50 mg/kg/day for five days; cited from earlier work.
In data set [2] the test system is Salmonella typhimurium TA98. The experiment in a line: Ames assay, strain TA98. It is filed as cell-based. To be noted: for Doses at which precipitate was seen on the plates: Ames plates; for Mutagenic response (dose-related increase in revertant colonies): TA98, with and without metabolic activation; for Cytotoxicity to TA98: under any test condition. For orientation: In the Ames test, an excess of revertant colonies over the control signals mutagenicity.

Data set [3] concerns human whole blood. As to the kind of experiment: In vitro methemoglobin assay. It is filed as cell-based.
For data set [4], the system named is T. b. rhodesiense. The conditions noted are these: read-out: antitrypanosomal IC50; T. b. rhodesiense in vitro; cited from earlier work.
The conditions of data set [5]: cited from earlier work.
Data set [6] deals with human liver cancer cell lines (HepG2, Hep3B, Huh7, PLC5). The experiment in a line: Cytotoxicity, panel of four human liver cancer cell lines. To be noted: read-out: IC50 values, range over the panel of human liver cells. The format is cell-based.
Data set [7] concerns L6 rat myoblasts. To be noted: read-out: IC50 against the L6 cell line; L6 rat myoblasts in vitro; cited from earlier work.

pIC50: −log10 of the molar value. Values joined by “and” are separate entries in the source; they are usually repeats but may differ in a detail not shown here. Equal entries are not always repeated.

The pIC50 is the negative decadic logarithm of the IC50, by convention in mol/L.

On to `COc1ccccc1CN1c2ccc(OC(C)=O)cc2C(C)=CC1(C)C` [OSU-75, 1-(2-methoxybenzyl)-1,2-dihydro-2,2,4-trimethylquinolin-6-yl acetate], for which the “Outcome in murine first stage trypanosomiasis model” value in data set [1] is on record as “resulted in cures”. In data set [2], the “Doses at which precipitate was seen on the plates” value is listed as no less than 500 μg/plate, the “Mutagenic response (dose-related increase in revertant colonies)” value is reported as “did not elicit a mutagenic response” and the “Cytotoxicity to TA98” value was “not cytotoxic”. This compound also showed a Methemoglobin level in data set [3] (10 μM, 60 min, 37 °C) of 1.2%. Also, in data set [3] (50 μM, 60 min, 37 °C), the Methemoglobin level was 3.8%.
On to `CC1=CC(C)(C)N(Cc2ccccc2)c2ccc(Cl)cc21` [JR-I-78, 1-benzyl-6-chloro-2,2,4-trimethyl-1,2-dihydroquinoline], for which, in data set [2], the “Mutagenic response (dose-related increase in revertant colonies)” value was “did not elicit a mutagenic response” and the “Cytotoxicity to TA98” value was “not cytotoxic”. The Methemoglobin level in data set [3] (10 μM, 60 min, 37 °C) stood at 0.8%. The Methemoglobin level in data set [3] (50 μM, 60 min, 37 °C) turned out to be 0.8%.
With `CC(=O)Oc1ccc2c(c1)C(C)=CC(C)(C)N2Cc1ccccc1` [OSU-40, 1-benzyl-1,2-dihydro-2,2,4-trimethylquinolin-6-yl acetate], the pIC50 in data set [4] was 7.92; in data set [6], 4.44 to 5.10; in data set [7], 4.62. In addition, the Deacetylation in vivo entry in data set [5] (preliminary pharmacokinetic studies in rats) is on record as “rapidly deacetylated”.
For the compound `O=N[O-].[Na+]` [Sodium nitrite, reference compound], the Methemoglobin level worked out at 37.4% in data set [3] (5 mM, 10 min); 41.2% in data set [3] (5 mM, 30 min); 50.6% in data set [3] (5 mM, 60 min).
For the compound `CC1=CC(C)(C)N(Cc2ccccc2)c2ccc(O)cc21.Cl` [OSU-36.HCl, 1-benzyl-1,2-dihydro-2,2,4-trimethylquinolin-6-ol hydrochloride], the pIC50 in data set [4] was 7.89; in data set [6], 4.70 to 5.28; in data set [7] it was 4.96. Moreover, the OSU-36 plasma concentration result in data set [5] (intravenous OSU-36.HCl 2 mg/kg, measured at 60 min, analyte OSU-36) is “approximately 150 ng/mL and ~ 0.53 μM”. In addition, the “Outcome in murine first stage trypanosomiasis model” value in data set [1] was “resulted in cures”. In addition, the “Doses at which precipitate was seen on the plates” value in data set [2] was no less than 500 μg/plate. Also, the “Mutagenic response (dose-related increase in revertant colonies)” value in data set [2] is on record as “did not elicit a mutagenic response”. Also, the “Doses cytotoxic to the TA98 strain” value is on record as no less than 100 μg/plate in data set [2] (in the absence of metabolic activation) and no less than 500 μg/plate in data set [2] (in the presence of metabolic activation). Also, the Methemoglobin level is reported as 2.1% in data set [3] (10 μM, 60 min, 37 °C) and 9.3% in data set [3] (50 μM, 60 min, 37 °C).
